In US20060003027A1, “Composition and method for reducing side effects of indole-3-carbinol and derivatives” (priority 2004, published 2006):

Assays:
mammary carcinogenesis = details: rat model; cited from earlier work
[1] = Side effects observed in treated patients (case reports); assay type: in vivo, human
Protocol: (§1) This patient was administered a high dosage of I3C, specifically 110 mg/per dose, twice daily. […] A composition (composition 1) in accordance with the present invention was then given to this patient. Composition 1 is as set forth below:
(§2) Composition 3 was then administered to this patient for a period of eight weeks.

[2] = system: cervical or vaginal neoplasia; assay: Treatment of female patients with coccygeal-area pain and abnormal pap smear (pain, pap smear, biopsy); assay type: in vivo, human; details: I3C alone, 110 mg per dose twice daily; Example 1 patient
Protocol: A patient, and 110 lbs. in weight, has complained of pain in the area of the coccygeal vertebra, which may reflect cervical inflammation, and/or cervical or vaginal neoplasia.
as §1
Composition 2 in accordance with the present invention was administered to the patient. Composition 2 is as set forth below:
as §2

[3] = system: HPV-induced benign tumors of laryngeal tissue; details: mouse model; cited from earlier work

OCc1c[nH]c2ccccc12 [Composition I3C, Indole-3-carbinol]
inhibition of mammary carcinogenesis (mammary carcinogenesis): effective in inhibiting mammary carcinogenesis | side effects experienced ([1]; I3C alone, 110 mg per dose twice daily, about a week, patient, 110 lbs): headache, dizziness and fatigue | undesirable side effects ([1]; I3C at 200 mg/day and above 200 mg/day, some people of regular body weight): headache, dizziness, stomach disturbance, convulsion, vomiting, and fatigue | pain in the area of the coccygeal vertebra [2]: relief from the pain | growth of HPV-induced benign tumors of laryngeal tissue [3]: inhibits growth
